Reference: patent US9708334B2, “Substituted 2,4,5,6-tetrahydropyrrolo[3,4-c]pyrazole and 4,5,6,7-tetrahydro-2H-pyrazolo[4,3-c]pyridine compounds as GlyT1 inhibitors” (DART NEUROSCIENCE (CAYMAN) LTD., priority 2014, dated 2017)

Target: T1, GlyT1 (Homo sapiens, UniProt P48067)
T1 construct: expressed in transfected cells
T1 sequence (P48067 1-706): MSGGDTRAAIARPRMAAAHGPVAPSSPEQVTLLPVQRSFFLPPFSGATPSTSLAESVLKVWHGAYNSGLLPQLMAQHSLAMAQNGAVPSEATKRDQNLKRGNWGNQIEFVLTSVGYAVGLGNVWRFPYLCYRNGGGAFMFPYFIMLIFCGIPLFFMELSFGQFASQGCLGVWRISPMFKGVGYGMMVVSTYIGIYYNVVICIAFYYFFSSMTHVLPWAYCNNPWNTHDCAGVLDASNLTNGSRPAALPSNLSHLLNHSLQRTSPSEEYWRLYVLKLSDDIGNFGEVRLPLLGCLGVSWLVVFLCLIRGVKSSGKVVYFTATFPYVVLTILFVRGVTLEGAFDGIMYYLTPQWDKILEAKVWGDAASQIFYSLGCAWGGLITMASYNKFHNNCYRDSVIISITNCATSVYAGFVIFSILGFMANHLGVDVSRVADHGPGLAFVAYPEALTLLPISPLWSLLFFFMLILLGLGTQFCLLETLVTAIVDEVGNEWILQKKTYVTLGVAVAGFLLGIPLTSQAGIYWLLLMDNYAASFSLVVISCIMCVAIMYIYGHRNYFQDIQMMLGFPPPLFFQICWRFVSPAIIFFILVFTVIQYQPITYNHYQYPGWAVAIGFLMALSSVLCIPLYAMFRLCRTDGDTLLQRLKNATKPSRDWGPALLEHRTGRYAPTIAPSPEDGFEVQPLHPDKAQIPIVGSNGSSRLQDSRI
Test: Glycine Transporter 1 (GlyT1) uptake assay, scintillation proximity assay of [14C]-glycine uptake
Format: cell-based
Settings: SPA, four parameter logistic fit, read-out: GlyT1 (pIC50) (converted)
Summary of the method: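 [14C]-glycine uptake read by scintillation proximity on a plate counter. IC50 from four-parameter logistic fit of dose-response data.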

Compound | IC50 [µM]
COc1c(C#N)ccc(OCC2(C)CC2)c1C(=O)N1CCc2nn(-c3ccc(F)cc3)cc2C1 [Example 475, 3-[2-(4-Fluorophenyl)-2H 4H 5H 6H 7H-pyrazolo[4,3-c]pyridine-5-carbonyl]-2-methoxy-4-[(1-methylcyclopropyl)methoxy]benzonitrile] | > 10
COc1c(C#N)ccc(OCC2(C(F)(F)F)CC2)c1C(=O)N1CCc2nn(-c3ccc(F)cc3)cc2C1 [Example 476, 3-[2-(4-Fluorophenyl)-2H 4H 5H 6H 7H-pyrazolo[4,3-c]pyridine-5-carbonyl]-2-methoxy-4-{[1-(trifluoromethyl)cyclopropyl]methoxy}benzonitrile] | 1 to 10
CC(C)(Oc1ccc(S(C)(=O)=O)cc1C(=O)N1Cc2cn(-c3ccc(F)cc3)nc2C1)C(F)(F)F [Example 477, 2-(4-Fluorophenyl)-5-{5-methanesulfonyl-2-[(1 1 1-trifluoro-2-methylpropan-2-yl)oxy]benzoyl}-2H 4H 5H 6H-pyrrolo[3,4-c]pyrazole] | > 10
CNC(=O)c1ccc(OC(C)C(F)(F)F)c(C(=O)N2CCc3nn(-c4ccc(F)cc4)cc3C2)c1Cl (stereo not drawn) [Example 478, 2-Chloro-3-[2-(4-fluorophenyl)-2H 4H 5H 6H 7H-pyrazolo[4,3-c]pyridine-5-carbonyl]-N-methyl-4-[(1 1 1-trifluoropropan-2-yl)oxy]benzamide] | < 0.1
COc1c(C(=O)N2CCC2)ccc(OC(C)C(F)(F)F)c1C(=O)N1CCc2nn(-c3ccc(F)cc3)cc2C1 (stereo not drawn) [Example 479, 1-{3-[2-(4-Fluorophenyl)-2H 4H 5H 6H 7H-pyrazolo[4,3-c]pyridine-5-carbonyl]-2-methoxy-4-[(1 1 1-trifluoropropan-2-yl)oxy]benzoyl}azetidine] | < 0.1
CNC(=O)c1ccc(OC(C)C(F)(F)F)c(C(=O)N2CCc3nn(-c4ccc(F)cc4)cc3C2)c1OC (stereo not drawn) [Example 480, 3-[2-(4-Fluorophenyl)-2H 4H 5H 6H 7H-pyrazolo[4,3-c]pyridine-5-carbonyl]-2-methoxy-N-methyl-4-[(1 1 1-trifluoropropan-2-yl)oxy]benzamide] | 0.1 to 1
CC(Oc1ccc(C(=O)N2CCC2)cc1C(=O)N1CCc2nn(-c3ccc(F)cc3)cc2C1)C(F)(F)F (stereo not drawn) [Example 481, 1-{3-[2-(4-Fluorophenyl)-2H 4H 5H 6H 7H-pyrazolo[4,3-c]pyridine-5-carbonyl]-4-[(1 1 1-trifluoropropan-2-yl)oxy]benzoyl}azetidine] | > 10
CNC(=O)c1ccc(OC(C)C(F)(F)F)c(C(=O)N2CCc3nn(-c4ccc(F)cc4)cc3C2)c1 (stereo not drawn) [Example 482, 3-[2-(4-Fluorophenyl)-2H 4H 5H 6H 7H-pyrazolo[4,3-c]pyridine-5-carbonyl]-N-methyl-4-[(1 1 1-trifluoropropan-2-yl)oxy]benzamide] | 0.1 to 1
COc1c(C(N)=O)ccc(OC(C)C(F)(F)F)c1C(=O)N1CCc2nn(-c3ccc(F)cc3)cc2C1 (stereo not drawn) [Example 483, 3-[2-(4-Fluorophenyl)-2H 4H 5H 6H 7H-pyrazolo[4,3-c]pyridine-5-carbonyl]-2-methoxy-4-[(1 1 1-trifluoropropan-2-yl)oxy]benzamide] | 1 to 10
CC(Oc1ccc(C(N)=O)c(Cl)c1C(=O)N1Cc2cn(-c3ccc(F)cc3)nc2C1)C(F)(F)F (stereo not drawn) [Example 484, 2-Chloro-3-[2-(4-fluorophenyl)-2H 4H 5H 6H-pyrrolo[3,4-c]pyrazole-5-carbonyl]-4-[(1 1 1-trifluoropropan-2-yl)oxy]benzamide] | < 0.1
COc1c(C#N)ccc(C2CCCC2)c1C(=O)N1CCc2nn(-c3ccccc3)cc2C1 [Example 485] | < 0.1
COc1c(C#N)ccc(C2CCCC2)c1C(=O)N1CCc2nn(-c3ccc(F)cc3)cc2C1 [Example 486, 4-Cyclopentyl-3-[2-(4-fluorophenyl)-2H 4H 5H 6H 7H-pyrazolo[4,3-c]pyridine-5-carbonyl]-2-methoxybenzonitrile] | < 0.1
COc1c(C#N)ccc(C2(F)COC2)c1C(=O)N1CCc2nn(-c3ccccc3)cc2C1 [Example 487] | 1 to 10
COc1c(C#N)ccc(C2CCC2)c1C(=O)N1CCc2nn(-c3ccccc3)cc2C1 [Example 488, 4-Cyclobutyl-2-methoxy-3-{2-phenyl-2H 4H 5H 6H 7H-pyrazolo[4,3-c]pyridine-5-carbonyl}benzonitrile] | 0.1 to 1
COc1c(C#N)ccc(C2(F)CCC2)c1C(=O)N1CCc2nn(-c3ccc(F)cc3)cc2C1 [Example 489, 4-(1-Fluorocyclobutyl)-3-[2-(4-fluorophenyl)-2H 4H 5H 6H 7H-pyrazolo[4,3-c]pyridine-5-carbonyl]-2-methoxybenzonitrile] | 0.1 to 1
COc1c(C#N)ccc(C2(F)CCCC2)c1C(=O)N1CCc2nn(-c3ccccc3)cc2C1 [Example 490, 4-(1-Fluorocyclopentyl)-2-methoxy-3-{2-phenyl-2H 4H 5H 6H 7H-pyrazolo[4,3-c]pyridine-5-carbonyl}benzonitrile] | < 0.1
COc1c(C#N)ccc(C2(F)CCCC2)c1C(=O)N1CCc2nn(-c3ccc(F)cc3)cc2C1 [Example 491, 4-(1-Fluorocyclopentyl)-3-[2-(4-fluorophenyl)-2H 4H 5H 6H 7H-pyrazolo[4,3-c]pyridine-5-carbonyl]-2-methoxybenzonitrile] | < 0.1
COc1c(C#N)ccc(C2(F)CCOCC2)c1C(=O)N1CCc2nn(-c3ccc(F)cc3)cc2C1 [Example 492] | 0.1 to 1
COc1c(C#N)ccc(C2(OC)CCC2)c1C(=O)N1CCc2nn(-c3ccc(F)cc3)cc2C1 [Example 493, 3-[2-(4-Fluorophenyl)-2H 4H 5H 6H 7H-pyrazolo[4,3-c]pyridine-5-carbonyl]-2-methoxy-4-(1-methoxycyclobutyl)benzonitrile] | 1 to 10
COc1c(C#N)ccc(C2CCCC2)c1C(=O)N1Cc2cn(-c3ccc(F)cc3)nc2C1 [Example 494, 4-Cyclopentyl-3-[2-(4-fluorophenyl)-2H 4H 5H 6H-pyrrolo[3,4-c]pyrazole-5-carbonyl]-2-methoxybenzonitrile] | < 0.1
COc1c(C#N)ccc(C2CCCC2)c1C(=O)N1Cc2cn(-c3cncc(F)c3)nc2C1 [Example 495, 4-Cyclopentyl-3-[2-(5-fluoropyridin-3-yl)-2H 4H 5H 6H-pyrrolo[3,4-c]pyrazole-5-carbonyl]-2-methoxybenzonitrile] | < 0.1
CS(=O)(=O)c1ccc(N2CCC(F)(F)C2)c(C(=O)N2CCc3nn(-c4ccccc4)cc3C2)c1 [Example 496, 3 3-Difluoro-1-(4-methanesulfonyl-2-{2-phenyl-2H 4H 5H 6H 7H-pyrazolo[4,3-c]pyridine-5-carbonyl}phenyl)pyrrolidine] | 0.1 to 1
CC(C)(C)COc1ccc(S(C)(=O)=O)cc1C(=O)N1CCc2nn(-c3ccccc3)cc2C1 [Example 497, 5-[2-(2 2-Dimethylpropoxy)-5-methanesulfonylbenzoyl]-2-phenyl-2H 4H 5H 6H 7H-pyrazolo[4,3-c]pyridine] | 0.1 to 1
CS(=O)(=O)c1ccc(N2CCCC2)c(C(=O)N2CCc3nn(-c4ccccc4)cc3C2)c1 [Example 498, 1-(4-Methanesulfonyl-2-{2-phenyl-2H 4H 5H 6H 7H-pyrazolo[4,3-c]pyridine-5-carbonyl}phenyl)pyrrolidine] | 1 to 10
CS(=O)(=O)c1ccc(N2CCC2)c(C(=O)N2CCc3nn(-c4ccccc4)cc3C2)c1 [Example 499, 1-(4-Methanesulfonyl-2-{2-phenyl-2H 4H 5H 6H 7H-pyrazolo[4,3-c]pyridine-5-carbonyl}phenyl)azetidine] | > 10
CS(=O)(=O)c1ccc(OCC2CC2)c(C(=O)N2CCc3nn(-c4ccccc4)cc3C2)c1 [Example 500, 5-[2-(Cyclopropylmethoxy)-5-methanesulfonylbenzoyl]-2-phenyl-2H 4H 5H 6H 7H-pyrazolo[4,3-c]pyridine] | 1 to 10
CC(Oc1ccc(C#N)c(Cl)c1C(=O)N1CCc2c(cnn2-c2ccc(F)cc2)C1)C(F)(F)F (stereo not drawn) [Example 501, 2-Chloro-3-[1-(4-fluorophenyl)-1H 4H 5H 6H 7H-pyrazolo[4,3-c]pyridine-5-carbonyl]-4-[(1 1 1-trifluoropropan-2-yl)oxy]benzonitrile] | 0.1 to 1
N#Cc1ccc(N2CCC(F)(F)CC2)c(C(=O)N2CCc3nn(-c4ccccc4)cc3C2)c1Cl [Example 502, 2-Chloro-4-(4 4-difluoropiperidin-1-yl)-3-{2-phenyl-2H 4H 5H 6H 7H-pyrazolo[4,3-c]pyridine-5-carbonyl}benzonitrile] | 0.1 to 1
CC(C)(C)COc1ccc(C#N)c(Cl)c1C(=O)N1CCc2nn(-c3ccccc3)cc2C1 [Example 503, 2-Chloro-4-(2 2-dimethylpropoxy)-3-{2-phenyl-2H 4H 5H 6H 7H-pyrazolo[4,3-c]pyridine-5-carbonyl}benzonitrile] | 0.1 to 1
N#Cc1ccc(OCC2CC2)c(C(=O)N2CCc3nn(-c4ccccc4)cc3C2)c1Cl [Example 504, 2-Chloro-4-(cyclopropylmethoxy)-3-{2-phenyl-2H 4H 5H 6H 7H-pyrazolo[4,3-c]pyridine-5-carbonyl}benzonitrile] | 1 to 10
